From PMC6754432, “Radiochemical examination of transthyretin (TTR) brain penetration assisted by iododiflunisal, a TTR tetramer stabilizer and a new candidate drug for AD” (Scientific Reports, 2019)

Tests used:
[1] = Ex vivo biodistribution by dissection and gamma counting after intravenous administration; assay type: in vivo; conditions: i.v., mice
Protocol: The biodistribution of [^131I]TTR after intravenous administration in wild type mice was first investigated. With that aim, animals (n = 3 per time point) were administered with the radiotracer and sacrificed by exsanguination at pre-defined time points. Major organs were harvested together with blood and urine and the amount of radioactivity was determined by gamma counting. (Fig. 2, red bars).
Animals (n = 3 per compound and time point) were anesthetized with isoflurane 5% in pure oxygen and a solution containing [^131I]TTR, [^131I]IDIF, [^131I]TTR-IDIF complex or TTR-[^131I]IDIF complex (0.9 ± 0.4 MBq/120 μl) was injected through one of the lateral tail veins. Animals were recovered from anaesthesia and at pre-determined time points (t = 5, and 15 min and 1, 6 and 24 h), animals were sacrificed by perfusion using saline solution and kidneys, spleen, liver, small intestine, and brain were quickly removed and rinsed with water. The amount of activity in each organ was measured in an automatic gamma counter (2470 Wizard, PerkinElmer). Urine and blood samples were obtained just before perfusion. Part of the blood was processed to separate the plasma, which was also counted in the gamma counter.
For dissection and gamma counting experiments to assess biodistribution, values obtained for different compounds at each time point and organ were compared using t-student test, comparison of two independent means, using the GraphPad Prism software (version 7.03).

[2] = target: T1, TTR (Homo sapiens, UniProt P02766); experiment: Displacement of bound [131I]IDIF from TTR-[131I]IDIF complex by non-labeled IDIF; assay type: binding; conditions: concentrations over 50 μM of IDIF, TTR complex 0.11 μM, overnight 4 °C
T1 construct: made in house
Protocol: Likewise, the preparation of [^131I]TTR-IDIF was carried out under adequate conditions to ensure that all the [^131I]TTR was stabilized with IDIF. This is extremely important because the separation of [^131I]TTR from [^131I]TTR-IDIF is unfeasible using chromatographic techniques. […] It was observed that a concentration of IDIF = 50 µM displaced > 99% of bound [^131I]IDIF.
First, the TTR/IDIF relative amount to achieve complete formation of the complex was determined. With that aim, six 100 μL aliquots of the [^131I]IDIF-TTR complex prepared as described above were incubated overnight (T = 4 °C) with different amounts of non-radioactive IDIF in 100 μL TNE buffer (final concentrations of IDIF = 0.88, 2.63, 8.76, 17.5, 52.5 and 175 μM, respectively; final concentration of TTR as TTR-[^131I]IDIF complex = 0.11 μM). After incubation, the samples were eluted through illustra^TM NAP-5 columns (GE Healthcare, USA) and radioactivity corresponding to the collected fractions of free [^131I]IDIF and TTR-[^131I]IDIF complex were compared to determine the proportion of [^131I]IDIF free and bound to TTR. For concentrations over 50 μM of IDIF, the displacement was > 97%.

Row | Compound | percentage of injected dose per gram of blood ([1]; blood, t = 5 min, n = 3) [%ID/g] | maximum value in brain ([1]; brain, 1 h after administration) [%ID/g] | accumulation in kidneys ([1]; kidneys, t = 5 min) [% ID/g] | accumulation in liver ([1]; liver, t = 5 min) [% ID/g] | accumulation in small intestine (peak) ([1]; small intestine, peak at t = 1–6 h) | displacement of [131I]IDIF [2] [%]
1 | O=C(O)c1cc(-c2ccc(F)cc2F)cc([131I])c1O [[^131I]IDIF, [^131I]iododiflunisal] | 23.3 ± 7.6 | 0.05 | 14.9 ± 3.0 | 20.0 ± 5.5 | ca. 15 % ID/g | –
2 | O=C(O)c1cc(-c2ccc(F)cc2F)cc(I)c1O [IDIF, iododiflunisal] | – | – | – | – | – | > 97
